# Laboratory results taken from PMC10385824, “Antiproliferative and Tubulin-Destabilising Effects of 3-(Prop-1-en-2-yl)azetidin-2-Ones and Related Compounds in MCF-7 and MDA-MB-231 Breast Cancer Cells” (Pharmaceuticals, 2023).
# Like-named read-outs stand apart in the source and are kept apart here.
# Experiments:
# [1] = tested on: 786-0; assay: NCI-60 SRB screen, renal cancer; format: cell-based, human; conditions: 786-0, 48 h; for GI50: Homo sapiens, five dose 0.01–100 µM, read-out: GI50
# [2] = tested on: HS 578T; assay: NCI-60 SRB screen, breast cancer; format: cell-based; conditions: Homo sapiens; HS 578T; five dose 0.01–100 µM, 48 h; read-out: GI50
# [3] = tested on: MDA-MB-231/ATCC; assay: NCI-60 SRB screen, breast cancer; format: cell-based, human; conditions: 48 h; for GI50 / IC50: Homo sapiens; for GI50: five dose 0.01–100 µM, read-out: GI50; for IC50: MDA-MB-231, obtained from NCI, five concentrations 0.01–100 μM, read-out: Antiproliferative Activity IC50
# [4] = tested on: CAKI-1; assay: NCI-60 SRB screen, renal cancer; format: cell-based, human; conditions: CAKI-1, 48 h; for GI50: Homo sapiens, five dose 0.01–100 µM, read-out: GI50
# [5] = tested on: ACHN; assay: NCI-60 SRB screen, renal cancer; format: cell-based, human; conditions: 48 h; for GI50: Homo sapiens, five dose 0.01–100 µM, read-out: GI50
# [6] = tested on: NCI-H552; assay: NCI-60 SRB screen, non-small cell lung cancer; format: cell-based, human; conditions: 48 h; for GI50: Homo sapiens, NCI-H552, five dose 0.01–100 µM, read-out: GI50
# [7] = tested on: SK-OV-3; assay: NCI-60 SRB screen, ovarian cancer; format: cell-based, human; conditions: SK-OV-3, 48 h; for GI50: Homo sapiens, five dose 0.01–100 µM, read-out: GI50
# [8] = tested on: U251; assay: NCI-60 SRB screen, CNS cancer; format: cell-based, human; conditions: U251, 48 h; for GI50: Homo sapiens, U-251, five dose 0.01–100 µM, read-out: GI50
# [9] = tested on: HCT-116; assay: NCI-60 SRB screen, colon cancer; format: cell-based, human; conditions: HCT-116, 48 h; for GI50: Homo sapiens, five dose 0.01–100 µM, read-out: GI50
# [10] = tested on: PC-3; assay: NCI-60 SRB screen, prostate cancer; format: cell-based, human; conditions: PC-3, 48 h; for GI50: Homo sapiens, five dose 0.01–100 µM, read-out: GI50
# [11] = tested on: SW-620; assay: NCI-60 SRB screen, colon cancer; format: cell-based, human; conditions: SW-620, 48 h; for GI50: Homo sapiens, five dose 0.01–100 µM, read-out: GI50
# [12] = tested on: MOLT-4; assay: NCI-60 SRB screen, leukemia; format: cell-based, human; conditions: MOLT-4, 48 h; for GI50: Homo sapiens, five dose 0.01–100 µM, read-out: GI50
# [13] = tested on: EKVX; assay: NCI-60 SRB screen, non-small cell lung cancer; format: cell-based, human; conditions: 48 h
# [14] = tested on: SF295; assay: NCI-60 SRB screen, CNS cancer; format: cell-based, human; conditions: SF-295, 48 h; for GI50: Homo sapiens, SF295, five dose 0.01–100 µM, read-out: GI50
# [15] = tested on: NCI/ADR-RES; assay: NCI-60 SRB screen, ovarian cancer; format: cell-based, human; conditions: 48 h; for GI50: Homo sapiens, five dose 0.01–100 µM, read-out: GI50
# [16] = tested on: MCF-7 human breast cancer cells; assay: cells
# [17] = tested on: MDA-MB-468; assay: NCI-60 SRB screen, breast cancer; format: cell-based, human; conditions: MDA-MB-468, 48 h; for GI50: Homo sapiens, five dose 0.01–100 µM, read-out: GI50
# [18] = tested on: TK-10; assay: NCI-60 SRB screen, renal cancer; format: cell-based, human; conditions: TK-10, 48 h; for GI50: Homo sapiens, five dose 0.01–100 µM, read-out: GI50
# [19] = tested on: SK-MEL-5; assay: NCI-60 SRB screen, melanoma; format: cell-based, human; conditions: SK-MEL-5, 48 h; for GI50: Homo sapiens, five dose 0.01–100 µM, read-out: GI50
# [20] = tested on: OVCAR-3; assay: NCI-60 SRB screen, ovarian cancer; format: cell-based, human; conditions: OVCAR-3, 48 h; for GI50: Homo sapiens, five dose 0.01–100 µM, read-out: GI50
# [21] = tested on: KM12; assay: NCI-60 SRB screen, colon cancer; format: cell-based, human; conditions: KM12, 48 h; for GI50: Homo sapiens, five dose 0.01–100 µM, read-out: GI50
# [22] = tested on: HCT-2998; assay: NCI-60 SRB screen, colon cancer; format: cell-based, human; conditions: 48 h; for GI50: Homo sapiens, HCT-2998, five dose 0.01–100 µM, read-out: GI50
# [23] = tested on: SN12C; assay: NCI-60 SRB screen, renal cancer; format: cell-based, human; conditions: 48 h; for GI50: Homo sapiens, five dose 0.01–100 µM, read-out: GI50
# [24] = tested on: NCI-H460; assay: NCI-60 SRB screen, non-small cell lung cancer; format: cell-based, human; conditions: NCI-H460, 48 h; for GI50: Homo sapiens, five dose 0.01–100 µM, read-out: GI50
# [25] = tested on: NCI 60 human cancer cell line panel; assay: NCI 60 cell line screen (SRB), panel values; conditions: for IC (TGI (total growth inhibition)): read-out: Mean TGI
# [26] = tested on: HOP-62; assay: NCI-60 SRB screen, non-small cell lung cancer; format: cell-based, human; conditions: HOP-62, 48 h; for GI50: Homo sapiens, five dose 0.01–100 µM, read-out: GI50
# [27] = tested on: MCF-7; assay: cells; conditions: Homo sapiens; for GI50: MCF7, 48 h
# [28] = tested on: OVCAR-5; assay: NCI-60 SRB screen, ovarian cancer; format: cell-based, human; conditions: OVCAR-5, 48 h; for GI50: Homo sapiens, five dose 0.01–100 µM, read-out: GI50
# [29] = tested on: MALME-3M; assay: NCI-60 SRB screen, melanoma; format: cell-based, human; conditions: MALME-3M, 48 h; for GI50: Homo sapiens, five dose 0.01–100 µM, read-out: GI50
# [30] = tested on: RPMI-8226; assay: NCI-60 SRB screen, leukemia; format: cell-based, human; conditions: RPMI-8226, 48 h; for GI50: Homo sapiens, five dose 0.01–100 µM, read-out: GI50
# [31] = tested on: SK-MEL-28; assay: NCI-60 SRB screen, melanoma; format: cell-based, human; conditions: SK-MEL-28, 48 h
# [32] = Homo sapiens, five dose 0.01–100 µM, read-out: GI50
# [33] = Homo sapiens, 60 cell, 9 h, read-out: LC50
# [34] = Homo sapiens, 60 cell, read-out: Mean LC50
# [35] = MCF7, 72 h, read-out: cell viability
smiles,measurement,setting,value
"C=C(C)C1C(=O)N(c2cc(OC)c(OC)c(OC)c2)C1c1ccc(OC)cc1 (stereo not drawn) [9h, 4-(4-Methoxyphenyl)-1-(3,4,5-trimethoxyphenyl)-3-(prop-1-en-2-yl)azetidin-2-one]",GI50,[1],44.2 nM
same,GI50,[2],39.1 nM
same,GI50,[3]; MDA-MB-231/ATCC,32.2 nM
same,IC50,[3],31.3 nM
same,GI50,[4],83.1 nM
same,GI50,[5],64.3 nM
same,GI50,[6],22.2 nM
same,GI50,[7],38.1 nM
same,GI50,[8],36 nM
same,GI50,[9],31.7 nM
same,GI50,[10],45.3 nM
same,GI50,[11],42.4 nM
same,GI50,[12],39.7 nM
same,GI50,[13]; [32],81.3 nM
same,GI50,[14],43 nM
same,GI50,[15],21.3 nM
same,IC50,"[16]; MCF7, MCF-7",33 nM
same,GI50,[17],25 nM
same,GI50,[18],96.5 nM
same,GI50,[19],24.3 nM
same,GI50,[20],25.4 nM
same,GI50,[21],34 nM
same,GI50,[22],30.7 nM
same,GI50,[23],50.3 nM
same,GI50,[24],35.6 nM
same,CC50,[25]; [33],> 100000 nM
same,GI50,"[25]; Homo sapiens, 60 cell, read-out: Mean GI50, mean over all NCI 60 cell lines",< 91.2 nM
same,CC50,[25]; [34],87100 nM
same,IC (TGI (total growth inhibition)),"[25]; Homo sapiens, 60 cell",15500 nM
same,GI50,"[25]; read-out: Mean GI50, mean over all NCI 60 cell lines",58.9 nM
same,GI50,[26],57.6 nM
same,GI50,[27],36.8 nM
same,GI50,[28],98.3 nM
same,GI50,[29],> 100000 nM
same,GI50,[30],39.9 nM
"C=C(C)C1C(=O)N(c2cc(OC)c(OC)c(OC)c2)C1c1ccc(OC)c(O)c1 (stereo not drawn) [9q, 4-(3-Hydroxy-4-methoxyphenyl)-1-(3,4,5-trimethoxyphenyl)-3-(prop-1-en-2-yl)azetidin-2-one]",% Growth,[1]; one dose 10 µM,4.28%
same,GI50,[1],26.8 nM
same,GI50,[2],10.6 nM
same,GI50,[3]; MDA-MB-231/ATCC,16.8 nM
same,IC50,[3],23.9 nM
same,% Growth,"[3]; MDA-MB-231/ATCC, one dose 10 µM",-6.67%
same,% Growth,[4]; one dose 10 µM,44.03%
same,GI50,[4],30.8 nM
same,GI50,[5],21.3 nM
same,% Growth,[5]; one dose 10 µM,34.94%
same,GI50,[6],< 10 nM
same,% Growth,"[6]; NCI-H522, one dose 10 µM",-43.45%
same,GI50,[7],30.4 nM
same,% Growth,[7]; one dose 10 µM,8.15%
same,GI50,[8],30.5 nM
same,% Growth,[8]; one dose 10 µM,9.06%
same,% Growth,[9]; one dose 10 µM,-10.74%
same,GI50,[9],14.9 nM
same,GI50,[10],20.1 nM
same,% Growth,[10]; one dose 10 µM,27.31%
same,GI50,[11],33.4 nM
same,% Growth,[11]; one dose 10 µM,17.89%
same,GI50,[12],20.2 nM
same,% Growth,[12]; one dose 10 µM,-15.34%
same,% Growth,[13]; one dose 10 µM,68.88%
same,GI50,[14],< 10 nM
same,% Growth,[14]; one dose 10 µM,20.26%
same,GI50,[15],< 10 nM
same,% Growth,[15]; one dose 10 µM,-2.95%
same,IC50,[16]; MCF7,10 nM
same,IC50,"[16]; MCF7, 72 h",12 nM
same,viability at 0.1 µM,[16]; [35],22%
same,viability at 1 µM,[16]; [35],21%
same,viability at 10 µM,[16]; [35],11%
same,GI50,[17],< 10 nM
same,% Growth,[17]; one dose 10 µM,13.36%
same,GI50,[18],53.4 nM
same,% Growth,[18]; one dose 10 µM,46.63%
same,GI50,[19],12.4 nM
same,% Growth,[19]; one dose 10 µM,-0.90%
same,GI50,[20],20.7 nM
same,% Growth,[20]; one dose 10 µM,-40.14%
same,GI50,[21],< 10 nM
same,% Growth,[21]; one dose 10 µM,-24.63%
same,% Growth,"[22]; HCC-2998, one dose 10 µM",-6.59%
same,GI50,[22],30.1 nM
same,GI50,[23],37 nM
same,% Growth,[23]; one dose 10 µM,31.39%
same,GI50,[31]; [32],64300 nM
same,% Growth,[31]; one dose 10 µM,65.72%
same,GI50,[24],30 nM
same,% Growth,[24]; one dose 10 µM,3.52%
same,CC50,[25]; [33],> 100000 nM
same,GI50,"[25]; Homo sapiens, 60 cell, breast cancer cell lines MCF-7, MDA-MB-231, HS 578T, BT-549, MDA-MB-468",10 to 16 nM
same,GI50,"[25]; Homo sapiens, 60 cell, in 48 of the panel cell lines tested",< 50 nM
same,CC50,[25]; [34],81300 nM
same,IC (TGI (total growth inhibition)),"[25]; Homo sapiens, 60 cell",32400 nM
same,GI50 in words,[25]; all cell lines investigated except T-47D,sub-micromolar
same,TGI,[25]; for 34 of the cell lines tested,> 100000 nM
same,"% Growth, Delta","[25]; one dose 10 µM, 48 h",65.02%
same,"% Growth, Range","[25]; one dose 10 µM, 48 h",126.47%
same,"% Growth, Mean","[25]; one dose 10 µM, 48 h, all cell lines",13.02%
same,% Growth,[26]; one dose 10 µM,22.22%
same,GI50,[26],52.1 nM
same,IC50,[27]; MCF7,< 10 nM
same,GI50,[27],< 10 nM
same,CC50,"[27]; MCF7, read-out: LC50",> 100000 nM
same,GI50,[28],49.4 nM
same,% Growth,[28]; one dose 10 µM,44.67%
same,GI50,[29],20500 nM
same,% Growth,[29]; one dose 10 µM,63.23%
same,GI50,[30],11.1 nM
same,% Growth,[30]; one dose 10 µM,11.06%
